Results published in PMC10746543, “Design principles for cyclin K molecular glue degraders” (Nature Chemical Biology, 2023).
Several values for one entry are separate records, joined by “and”; a condition that tells them apart may be missing. Equal entries are not always repeated. Where two headings read alike, the source gives them in different places. One block for each compound: values may come before it.

Tests used:
[1] = test system: HEK293T cells; assay: Drug sensitivity assay (CellTiter-Glo viability) with or without MLN4924 pretreatment; assay type: cell-based, human; settings: for EC50: Homo sapiens, HEK-293T; for Toxicity rescue: MLN4924-mediated cytotoxicity rescue, 10 µM used where n.d.
In short: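 HEK293T–Cas9, 0.15 × 10^6 ml^−1; pretreat DMSO vs 100 nM MLN4924; drugs dispensed after 2 h; 3 d exposure; CellTiter-Glo; viability vs DMSO control.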

[2] = molecular target: T1, CDK12–cyclin K and DDB1 (Homo sapiens, UniProt Q16531+Q9NYV4, K965R); assay: TR-FRET ternary complex formation assay (compound titration); assay type: binding; settings: for TR-FRET signal at compound concentration: replicate titrations; for EC50: read-out: TR-FRET EC50
T1 construct: His6–CDK12 (a.a. 713–1,052); full-length or beta-propeller B domain deletion (ΔBPB: a.a. 396–705 deleted) constructs of His6–DDB1ΔBPB, StrepII–Avi–DDB1, or His6–Spy–DDB1; made in house; host or cells: Trichoplusia ni High Five insect cells (baculovirus)
T1 sequence (Q9NYV4 713-1052 K965R): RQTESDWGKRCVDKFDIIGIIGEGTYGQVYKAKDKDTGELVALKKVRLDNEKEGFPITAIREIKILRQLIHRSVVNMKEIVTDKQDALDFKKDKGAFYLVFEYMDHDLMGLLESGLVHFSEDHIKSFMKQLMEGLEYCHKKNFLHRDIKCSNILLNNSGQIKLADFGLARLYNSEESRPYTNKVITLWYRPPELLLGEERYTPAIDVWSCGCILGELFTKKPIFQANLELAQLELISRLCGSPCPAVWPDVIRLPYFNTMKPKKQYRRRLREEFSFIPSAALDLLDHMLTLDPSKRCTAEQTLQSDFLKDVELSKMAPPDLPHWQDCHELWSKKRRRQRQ
T1 sequence (O75909 1-267 partner): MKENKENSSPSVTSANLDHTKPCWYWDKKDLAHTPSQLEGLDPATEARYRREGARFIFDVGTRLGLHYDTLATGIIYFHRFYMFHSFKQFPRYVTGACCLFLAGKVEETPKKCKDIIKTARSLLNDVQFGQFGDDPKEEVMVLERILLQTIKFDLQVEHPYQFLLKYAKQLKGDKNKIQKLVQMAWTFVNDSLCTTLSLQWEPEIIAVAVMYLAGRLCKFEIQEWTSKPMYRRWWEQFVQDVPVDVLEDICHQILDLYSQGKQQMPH
T1 sequence (Q16531 whole entry): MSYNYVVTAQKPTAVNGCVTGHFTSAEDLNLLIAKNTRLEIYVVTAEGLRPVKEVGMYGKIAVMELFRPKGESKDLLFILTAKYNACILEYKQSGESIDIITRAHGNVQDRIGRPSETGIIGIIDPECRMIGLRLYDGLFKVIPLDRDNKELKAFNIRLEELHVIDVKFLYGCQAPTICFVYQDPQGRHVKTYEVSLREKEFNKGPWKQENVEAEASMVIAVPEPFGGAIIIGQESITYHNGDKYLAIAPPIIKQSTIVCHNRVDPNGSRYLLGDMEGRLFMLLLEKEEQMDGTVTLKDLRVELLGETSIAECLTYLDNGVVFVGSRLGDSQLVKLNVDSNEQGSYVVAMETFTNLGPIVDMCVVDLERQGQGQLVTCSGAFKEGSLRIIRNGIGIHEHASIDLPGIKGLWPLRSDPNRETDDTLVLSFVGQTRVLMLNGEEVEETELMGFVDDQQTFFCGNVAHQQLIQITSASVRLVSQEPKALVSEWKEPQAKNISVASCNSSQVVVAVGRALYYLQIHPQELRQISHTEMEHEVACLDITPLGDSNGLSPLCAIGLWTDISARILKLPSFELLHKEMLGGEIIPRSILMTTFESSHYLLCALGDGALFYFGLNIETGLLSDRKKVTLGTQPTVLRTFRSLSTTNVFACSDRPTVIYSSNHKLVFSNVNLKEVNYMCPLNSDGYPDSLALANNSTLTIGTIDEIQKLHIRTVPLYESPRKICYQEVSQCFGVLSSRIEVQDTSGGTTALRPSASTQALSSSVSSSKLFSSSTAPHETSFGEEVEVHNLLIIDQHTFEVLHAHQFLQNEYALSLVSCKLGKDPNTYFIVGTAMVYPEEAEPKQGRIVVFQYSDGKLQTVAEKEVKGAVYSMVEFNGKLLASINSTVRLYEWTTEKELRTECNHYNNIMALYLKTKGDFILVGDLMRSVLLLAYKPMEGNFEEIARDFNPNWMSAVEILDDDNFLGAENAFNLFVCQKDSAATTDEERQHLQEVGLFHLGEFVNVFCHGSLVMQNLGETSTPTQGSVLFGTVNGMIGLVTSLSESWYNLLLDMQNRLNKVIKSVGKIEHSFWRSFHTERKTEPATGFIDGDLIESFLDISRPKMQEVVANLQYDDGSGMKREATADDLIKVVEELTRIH
In short: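 Signal was the ratio of 520 nm to 490 nm fluorescence, measured after a 70 μs delay that reduced background.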

[3] = test system: cyclin K–eGFP degradation reporter; assay: Cyclin K reporter stability analysis (dual-color cyclin K–eGFP reporter); assay type: cell-based, human; settings: for reporter assay signal (normalized): replicates
In short: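 First, reporter-bearing HEK293T–Cas9 cells are plated at 1 × 10^6 ml^−1. Next, drug or vehicle is added for 5 h. Finally, geometric-mean eGFP and mCherry signals of round, mCherry-positive cells are measured cytometrically, and their ratio is referenced to the DMSO average.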

[4] = compound concentration 0.468 nM
[5] = compound concentration 7.92001 nM
[6] = compound concentration 15.84 nM
[7] = compound concentration 30.96 nM
[8] = compound concentration 62.6401 nM
[9] = compound concentration 125.28 nM
[10] = compound concentration 244.8 nM
[11] = compound concentration 993.601 nM
[12] = compound concentration 2001.6 nM

TR-FRET signal [2, 4]: 0.3136 and 0.2898
TR-FRET signal at compound concentration [2, 4]: 0.3136 and 0.2898
TR-FRET signal ([2]; compound concentration 2.16 nM): 0.3334 and 0.33
TR-FRET signal at compound concentration ([2]; compound concentration 2.16 nM): 0.3334 and 0.33
TR-FRET signal ([2]; compound concentration 3.6 nM): 0.3697 and 0.368
TR-FRET signal at compound concentration ([2]; compound concentration 3.6 nM): 0.3697 and 0.368
TR-FRET signal [2, 5]: 0.4418 and 0.4327
TR-FRET signal at compound concentration [2, 5]: 0.4418 and 0.4327
TR-FRET signal [2, 6]: 0.566 and 0.543
TR-FRET signal at compound concentration [2, 6]: 0.566 and 0.543
TR-FRET signal [2, 7]: 0.7892 and 0.7403
TR-FRET signal at compound concentration [2, 7]: 0.7892 and 0.7403
TR-FRET signal [2, 8]: 1.141 and 1.026
TR-FRET signal at compound concentration [2, 8]: 1.141 and 1.026
TR-FRET signal [2, 9]: 1.566 and 1.513
TR-FRET signal at compound concentration [2, 9]: 1.566 and 1.513
TR-FRET signal [2, 10]: 2.027 and 2.001
TR-FRET signal at compound concentration [2, 10]: 2.027 and 2.001
TR-FRET signal [2, 11]: 2.439 and 2.564
TR-FRET signal at compound concentration [2, 11]: 2.439 and 2.564
TR-FRET signal [2, 12]: 2.241 and 2.631
TR-FRET signal at compound concentration [2, 12]: 2.241 and 2.631
EC50 ([2]; in vitro complex formation, 50 nM CDK12–cyclin K, 100 nM DDB1, text and figures): 104 ± 7 nM
EC50 ([2]; source data sheet correlations): 104 nM
DC50 ([3]; source data sheet correlations, read-out: DC50): 571 nM
Compound: CC[C@H](CO)Nc1nc(NCCCc2cccc(O)c2)c2ncn(C(C)C)c2n1 [DS68]
EC50 ([1]; Supplementary Fig. 5, HEK293T, CellTiter Glo, 72h, pre-treatment with 100 nM MLN4924, read-out: Viability EC50, with MLN4924): 109000 nM
EC50 ([1]; Supplementary Table 2, HEK293T viability, 72 h, compound alone, read-out: Cellular assays EC50): 2520 nM
Toxicity rescue ([1]; Supplementary Table 2): 296%

TR-FRET signal at compound concentration 0.468 nM ([2]; compound concentration 0.468 nM, raw replicate titration data): 0.1026 and 0.1033
TR-FRET signal at compound concentration 2.16 nM ([2]; compound concentration 2.16 nM, raw replicate titration data): 0.1211 and 0.1202
TR-FRET signal at compound concentration 3.6 nM ([2]; compound concentration 3.6 nM, raw replicate titration data): 0.158 and 0.1569
TR-FRET signal at compound concentration 4.68 nM ([2]; compound concentration 4.68 nM, raw replicate titration data): 0.141 and 0.164
TR-FRET signal at compound concentration 7.92001 nM ([2]; compound concentration 7.92001 nM, raw replicate titration data): 0.229 and 0.2182
TR-FRET signal at compound concentration 15.84 nM ([2]; compound concentration 15.84 nM, raw replicate titration data): 0.3288 and 0.3136
TR-FRET signal at compound concentration 21.6 nM ([2]; compound concentration 21.6 nM, raw replicate titration data): 0.2804 and 0.3137
TR-FRET signal at compound concentration 30.96 nM ([2]; compound concentration 30.96 nM, raw replicate titration data): 0.3522 and 0.3143
TR-FRET signal at compound concentration 36 nM ([2]; compound concentration 36 nM, raw replicate titration data): 0.3155 and 0.3474
TR-FRET signal at compound concentration 62.6401 nM ([2]; compound concentration 62.6401 nM, raw replicate titration data): 0.2879 and 0.2897
TR-FRET signal at compound concentration 79.2001 nM ([2]; compound concentration 79.2001 nM, raw replicate titration data): 0.2612 and 0.2943
TR-FRET signal at compound concentration 125.28 nM ([2]; compound concentration 125.28 nM, raw replicate titration data): 0.2755 and 0.2904
TR-FRET signal at compound concentration 158.4 nM ([2]; compound concentration 158.4 nM, raw replicate titration data): 0.2643 and 0.2881
TR-FRET signal at compound concentration 244.8 nM ([2]; compound concentration 244.8 nM, raw replicate titration data): 0.2809 and 0.2743
TR-FRET signal at compound concentration 309.6 nM ([2]; compound concentration 309.6 nM, raw replicate titration data): 0.2462 and 0.2819
TR-FRET signal at compound concentration 626.401 nM ([2]; compound concentration 626.401 nM, raw replicate titration data): 0.2417 and 0.2805
TR-FRET signal at compound concentration 993.601 nM ([2]; compound concentration 993.601 nM, raw replicate titration data): 0.2627 and 0.2615
TR-FRET signal at compound concentration 1252.8 nM ([2]; compound concentration 1252.8 nM, raw replicate titration data): 0.2431 and 0.2774
TR-FRET signal at compound concentration 2001.6 nM ([2]; compound concentration 2001.6 nM, raw replicate titration data): 0.2535 and 0.232
TR-FRET signal at compound concentration 2448 nM ([2]; compound concentration 2448 nM, raw replicate titration data): 0.2678 and 0.2721
TR-FRET signal at compound concentration 9936.01 nM ([2]; compound concentration 9936.01 nM, raw replicate titration data): 0.2509 and 0.2771
TR-FRET signal at compound concentration 20016 nM ([2]; compound concentration 20016 nM, raw replicate titration data): 0.2402 and 0.253
DC50 ([3]; read-out: Cellular assays DC50, Supplementary Table 2, HEK293T cycK-eGFP reporter, 5 h): > 10000 nM
Compound: CCc1cnn2c(NCc3ccc[n+]([O-])c3)cc(N3CCCC[C@H]3CCO)nc12 [Dinaciclib]
viability assay signal (normalized) ([1]; 5 nM, + MLN4924): 0.8664 and 0.8028
viability assay signal (normalized) ([1]; 5 nM, without MLN4924): 0.9657 and 1.0645
viability assay signal (normalized) ([1]; 10.7 nM, + MLN4924): 0.7659 and 0.6765
viability assay signal (normalized) ([1]; 10.7 nM, without MLN4924): 0.9934 and 0.9758
viability assay signal (normalized) ([1]; 22.9 nM, + MLN4924): 0.3817 and 0.3517
viability assay signal (normalized) ([1]; 22.9 nM, without MLN4924): 0.3511 and 0.381
viability assay signal (normalized) ([1]; 48.9 nM, + MLN4924): 0.2784 and 0.2759
viability assay signal (normalized) ([1]; 48.9 nM, without MLN4924): 0.2851 and 0.2898
viability assay signal (normalized) ([1]; 105 nM, + MLN4924): 0.2848 and 0.2647
viability assay signal (normalized) ([1]; 105 nM, without MLN4924): 0.2976 and 0.3085
viability assay signal (normalized) ([1]; 224 nM, + MLN4924): 0.2797 and 0.277
viability assay signal (normalized) ([1]; 224 nM, without MLN4924): 0.291 and 0.2867
viability assay signal (normalized) ([1]; 478 nM, + MLN4924): 0.2746 and 0.2757
viability assay signal (normalized) ([1]; 478 nM, without MLN4924): 0.3016 and 0.2883
viability assay signal (normalized) ([1]; 2190 nM, + MLN4924): 0.2646 and 0.2589
viability assay signal (normalized) ([1]; 2190 nM, without MLN4924): 0.2893 and 0.2745
viability assay signal (normalized) ([1]; 4680 nM, + MLN4924): 0.2516 and 0.2662
viability assay signal (normalized) ([1]; 4680 nM, without MLN4924): 0.2682 and 0.2734
viability assay signal (normalized) ([1]; 10000 nM, + MLN4924): 0.2413 and 0.2482
viability assay signal (normalized) ([1]; 10000 nM, without MLN4924): 0.239 and 0.2604
Toxicity rescue ([1]; Supplementary Table 2): -12%
reporter assay signal (normalized) ([3]; 5 nM): 0.9772 and 0.948
reporter assay signal (normalized) ([3]; 10.7 nM): 0.9389 and 0.9407
reporter assay signal (normalized) ([3]; 22.9 nM): 0.9927 and 0.9745
reporter assay signal (normalized) ([3]; 48.9 nM): 0.9927 and 0.9772
reporter assay signal (normalized) ([3]; 105 nM): 0.9863 and 0.9964
reporter assay signal (normalized) ([3]; 224 nM): 1.014 and 1.0155
reporter assay signal (normalized) ([3]; 478 nM): 0.99 and 1.01
reporter assay signal (normalized) ([3]; 2190 nM): 0.9881 and 0.9945
reporter assay signal (normalized) ([3]; 4680 nM): 1.022 and 0.99
reporter assay signal (normalized) ([3]; 10000 nM): 1.044 and 1.03
cyclin K reporter degradation, result in words ([3]; HEK293T): non-degrading
